Results as given in patent publication US7368130B2, “Microparticles” (The Board of Trustees of the University of Illinois, priority 2000, dated 2008).
Entries after “also recorded” stand apart in the source; their conditions may differ.

Columns and labels:
[1] = Release of rhodamine B from PLGA microspheres during incubation in PBS; assay type: physicochemical; details: 37° C.
Protocol: (§1) The rhodamine B, in its free base form, was dissolved in PLGA/ethyl acetate solutions at theoretical loadings of 1, 3 and 5%(mass drug/mass polymer). Microspheres of uniform 35, 50 and 65 μm diameters were fabricated, hardened and collected using the procedures described in the above examples. The presence of rhodamine had no observable effect on particle uniformity. Encapsulation of rhodamine (˜70% efficiency) was confirmed by fluorescence microscopy (FIG. 6, right). The rhodamine B is released from the spheres over the course of 7-10 days of incubation in PBS and 37° C.

[2] = Encapsulation of rhodamine B in PLGA microspheres, confirmed by fluorescence microscopy; assay type: physicochemical; details: PLGA microspheres from PLGA/ethyl acetate solution, theoretical loadings 1, 3 and 5%
Protocol: as §1

time over which rhodamine B is released from the spheres ([1]; PLGA microspheres of uniform 35, 50 and 65 μm diameters, theoretical loadings 1, 3 and 5% (mass drug/mass polymer), incubation in PBS): 7 to 10 days
encapsulation efficiency [2]: ~70%
Compound: CCN(CC)c1ccc2c(-c3ccccc3C(=O)O)c3ccc(=[N+](CC)CC)cc-3oc2c1 [rhodamine B]
release rate ([1]; dependence on sphere size and drug loading, PLGA microspheres in PBS): faster when spheres were smaller (not shown) or contained more drug; also recorded: faster when spheres contained more drug
